{"source": "patent US11883458B2", "about": "“Herb medicine composition for alleviating or treating asthma, and oriental pharmacopuncture solution containing same and injection containing same” (priority 2019, dated 2024)", "test_system": "asthma-induced BALB/c mice (ovalbumin)", "experiment": "Ovalbumin-induced asthma in BALB/c mice: white blood cell, eosinophil and IgE measurement", "assay_type": "in vivo", "conditions": "asthma-induced female BALB/c mice; injected twice a week for 4 weeks; mean of 3 mice; mouse blood", "procedure": "Ovalbumin was administered to BALB/c mice to induce asthma. The total white blood cell (WBC) count, eosinophil count, and […] in bronchoalveolar lavage fluid (BALF) were measured.\nAs experimental animals, BALB/c mice (supplier: Samtako Korea), which have been widely used in asthma tests, were used. Female BALB/c mice were used and were 6 weeks old at the time of acquisition and 7 weeks old at the time of the experiment. After acquisition, the mice were acclimatized in an animal test room for 6 days, and observed at least once a day. During the acclimatization period, the mice were distinguished by skin mark using a red oil magic pen. During the administration and observation period, the mice were distinguished by skin mark using a black oil magic pen. An individual identification card was attached to a breeding cage. The mice were housed in a breeding area under the condition of a temperature of 23±3° C., a relative humidity of 55±15%, a ventilation frequency of 10 to 20 times/hr, an illumination time of 12 hours, and an illuminance of 150 to 300 Lux. During the period of acclimatization and administration, at least four mice were housed in each polycarbonate breeding cage containing an appropriate amount of rug. During the acclimatization period, mice determined to be healthy were weighed and ranked according to weight. The mice were distributed into groups so that the mean weights of each group were equal.\nAs an asthma inducer, refrigerated ovalbumin (OVA) (catalog No.: A5503, supplier: Sigma Aldrich, Louis, Missouri, USA) was used. As an adjuvant, refrigerated aluminum hydroxide (Alum) (catalog No.: 77161, supplier: Thermo Fisher Scientific Inc, Waltham, Massachussets, USA) was used. […]\nAfter 4 weeks, the measurement of the white blood cell (WBC) count, eosinophil count, and IgE was performed using mouse blood. The mean values thereof were calculated, and the results are illustrated in Table 3 below."}
{"smiles": "C[C@@H]1C[C@H]2[C@@H]3CCC4=CC(=O)C=C[C@]4(C)[C@@]3(F)[C@@H](O)C[C@]2(C)[C@@]1(O)C(=O)CO", "note": "[Positive control, dexamethasone]", "values": [{"measurement": "Eosinophil count", "result": "1.41 X10^2 cells/μl"}, {"measurement": "IgE", "result": 23.45, "unit": "µg/mL"}, {"measurement": "WBC count", "result": "39.83 X10^3 cells/μl"}]}
